Read-outs that look alike come from different tables or passages of the source.
What was measured:
Doca rats = assay: decrease of the systolic blood pressure in Doca rats; type: in vivo; conditions: Rattus norvegicus, oral, 2 × 3 mg/kg, with respect to original value, read-out: percent decrease of the systolic blood pressure
Method: (§1) The above results are confirmed by the results of an investigation of the action on the control of blood pressure. On oral administration of a dosage of 2 × 3 mg/kg of compound to Doca rats (Technique according to Green and co-workers, Am. J. Physiol., 1952, 170, p. 94) and to Grollman rats (Technique according to Grollman, Proc. Soc. Exp. Biol. Med., 1944, 57, p. 102), the percent decrease of the systolic blood pressure with respect to its original value is noted.

[1] = acute toxicity investigation in mice; conditions: mouse, in vivo
[2] = tested on: uptake of ^3 H noradrenalin by the synaptosomes of a rat hypothalamus homogenate; assay: inhibition of the uptake of ^3 H noradrenalin by synaptosomes of a rat hypothalamus homogenate; type: biochemical; conditions: with respect to the control test
Description: The compounds of the formula (I) are capable of modifying the accumulation of noradrenalin and particularly to inhibit the uptake of ^3 H noradrenalin by the synaptosomes of a rat hypothalamus homogenate prepared according to Banerjee, Snyder and Mechoulam (J. Pharmacol. Exp. Ther., 194, 1, 74, 1975). This inhibition of the uptake of ^3 H noradrenaline is a known property of various compounds having an activity on the central nervous system and/or on the sympathetic nervous system, particularly a hypotensive effect (J. Glowinski and J. Axelrod, effects of Drugs on the Disposition of ^3 H norepinephrine in the Rat Brain, Pharmacological Reviews, Vol. 18, No […], Part I, 1966).
They are expressed as percent inhibition of the uptake with respect to the control test.

Grollman rats = assay: decrease of the systolic blood pressure in Grollman rats; type: in vivo, rat; conditions: oral, 2 × 3 mg/kg, with respect to original value
Method: as §1

[3] = iv, read-out: LD50 (mg/kg) i.v.
[4] = po, read-out: LD50 (mg/kg) p.o.
[5] = ultimate molar concentration 5 × 10^-5 M
[6] = ultimate molar concentration 5 × 10^-6 M
[7] = ultimate molar concentration 5 × 10^-4 M

| Compound | inhibition in vivo at 3 mg/kg (Doca rats) | LD50 [1, 3] | LD50 [1, 4] | inhibition % of the uptake of ^3 H noradrenalin [2, 5] | inhibition % of the uptake of ^3 H noradrenalin [2, 6] | inhibition % of the uptake of ^3 H noradrenalin [2, 7] | percent decrease of the systolic blood pressure (Grollman rats) |
| --- | --- | --- | --- | --- | --- | --- | --- |
| Cc1cc(N(C)C(=N)NC(=N)N)no1 [Example 7] | 15% | 70 mg/kg | > 1000 mg/kg |  |  |  |  |
| Cc1conc1NC(=N)NC(=N)N [Example 8] |  |  |  | 55% | 36% |  |  |
| Cc1cc(NC(=N)NC(=N)N2CCN(C)CC2)no1 [Example 19] | 20% |  |  |  |  |  |  |
| Cc1noc(C)c1NC(=N)NC(=N)N [Example 22] |  | > 100 mg/kg | > 1500 mg/kg |  |  |  |  |
| CCCCNC(=N)NC(=N)Nc1c(C)noc1C [Example 23] |  |  | > 750 mg/kg |  |  | 51% |  |
| Cc1noc(C)c1NC(=N)NC(=N)N(C)C [Example 24] |  |  | > 750 mg/kg |  |  | 28.4% |  |
| Cc1noc(NC(=N)NC(=N)N)c1C [Example 25] | 20% | 20 mg/kg | 300 mg/kg | 45.5% |  |  |  |
| CCCCNC(=N)NC(=N)Nc1onc(C)c1C [Example 26] |  | 35 mg/kg | 250 mg/kg | 39.6% |  |  |  |
| CCCN1CCN(C(=N)NC(=N)Nc2cc(C)on2)CC1 [Example 28] | 18% |  | 400 mg/kg | 20% |  | 60.2% | 18% |
| Cc1conc1NC(=N)NC(=N)N1CCN(C)CC1 [Example 29] | 15% |  | > 1000 mg/kg | 65.8% | 30.8% |  | 15% |
| Cc1cc(NC(=N)NC(=N)N2CCNCC2)no1 [Example 30] | 10% |  | > 1000 mg/kg |  |  | 51% |  |

From patent US4103010A, “(3-Piperazinocarbonylimino-quanidino)-isoxazoles” (Aron S.A.R.L., priority 1975, dated 1978)
